Legend:
ATF4-Luc activity = assay: ATF4-luc assay, tunicamycin-induced, 293 cells; conditions: Homo sapiens, HEK293; tunicamycin-induced ATF4-Luc activity in 293 cells; read-out: ATF4-luc Cell-based IC50
Method: ATF4-luc assay: 293 cells were transduced with an ATF4-luc expressing lentivirus (SABiosciences, Frederick, Md.) and selected in growth medium containing 1 μg/ml puromycin. To determine the effect of compounds on ER stress-induced ATF4 activity, 293-ATF4-luc cells were seeded at 15,000 cells per well in poly-D-Lysine coated 96-well plates and allowed to attach overnight. The cells were then pre-treated with test compounds for 30 minutes. Tunicamycin (2 μM) was added to induce ER stress and the plates were incubated at 37° C. for 6 hours. The culture media was then aspirated and the cells were lysed in passive lysis buffer (Promega Cat # E194A) on a plate shaker for 5 minutes. Luciferase activity was monitored using Luciferase Assay Reagent (Promega Cat # E1501) in a Wallac 1420 Victor2™ Multilabel Counter (PerkinElmer, Waltham, Mass.) and IC50 values were determined from the resulting fitted inhibition curves using un-induced (100% inhibition) and induced (0% inhibition) wells as controls.

456 kinases = assay: DiscoveRx scanMAX kinase profiling, number of kinases inhibited; format: binding; conditions: for # kinases inhibited >50%: 456 kinases tested; for number of kinases with >60% inhibition: 20 μM as stated in text, 456 kinases
Method: (§1) Biochemical assays: Recombinant human EIF2AK3 (PERK) catalytic domain (amino acids 536-1116; Cat # PV5107), GFP-eIF2a (Cat # PV4809) substrate, and Terbium-labelled phospho-eIF2a antibody (Cat # PR8956B) were purchased from Invitrogen (Carlsbad, Calif.). HIS-SUMO-GCN2 catalytic domain (amino acids 584-1019) was expressed and purified from E. coli. TR-FRET kinase assays were performed in the absence or presence of inhibitors in a reaction buffer consisting of 50 mM HEPES, pH 7.5, 10 mMMgCl2, 1.0 mM EGTA, and 0.01% Brij-35, and 100-200 nM GFP-eIF2a substrate. […] Following the addition of test compound, the reaction was initiated by addition of enzyme and incubated at room temperature for 45 minutes. The reaction was stopped by addition of EDTA to a final concentration of 10 mM and Terbium-labelled phospho-eIF2α antibody was added at a final concentration of 2 nM and incubated for 90 minutes. The resulting fluorescence was monitored in an EnVison® Multilabel reader (PerkinElmer, Waltham, Mass.). TR-FRET ratios and the resulting IC50 values were determined from the fitted inhibition curves. Biochemical specificity profiling was performed at Cerep (Redmond, Wash.) and DiscoverX (San Diego, Calif.).

secondary kinase targets = assay: Kinase selectivity by enzymatic biochemical assay (FIG. 2E); conditions: enzymatic assays
Method: as §1

[1] = biological target: T1, PERK phosphorylation in MCF10A-HER2 cells (Homo sapiens, UniProt Q9NZJ5); assay: Immunoblot of PERK phosphorylation in stressed cells; format: cell-based; conditions: 2 μM; cells in suspension for 24 hours
T1 construct: endogenous in cells; host or cells: MCF10A-HER2 cells in suspension for 24 hours
T1 sequence (Q9NZJ5 30-1116): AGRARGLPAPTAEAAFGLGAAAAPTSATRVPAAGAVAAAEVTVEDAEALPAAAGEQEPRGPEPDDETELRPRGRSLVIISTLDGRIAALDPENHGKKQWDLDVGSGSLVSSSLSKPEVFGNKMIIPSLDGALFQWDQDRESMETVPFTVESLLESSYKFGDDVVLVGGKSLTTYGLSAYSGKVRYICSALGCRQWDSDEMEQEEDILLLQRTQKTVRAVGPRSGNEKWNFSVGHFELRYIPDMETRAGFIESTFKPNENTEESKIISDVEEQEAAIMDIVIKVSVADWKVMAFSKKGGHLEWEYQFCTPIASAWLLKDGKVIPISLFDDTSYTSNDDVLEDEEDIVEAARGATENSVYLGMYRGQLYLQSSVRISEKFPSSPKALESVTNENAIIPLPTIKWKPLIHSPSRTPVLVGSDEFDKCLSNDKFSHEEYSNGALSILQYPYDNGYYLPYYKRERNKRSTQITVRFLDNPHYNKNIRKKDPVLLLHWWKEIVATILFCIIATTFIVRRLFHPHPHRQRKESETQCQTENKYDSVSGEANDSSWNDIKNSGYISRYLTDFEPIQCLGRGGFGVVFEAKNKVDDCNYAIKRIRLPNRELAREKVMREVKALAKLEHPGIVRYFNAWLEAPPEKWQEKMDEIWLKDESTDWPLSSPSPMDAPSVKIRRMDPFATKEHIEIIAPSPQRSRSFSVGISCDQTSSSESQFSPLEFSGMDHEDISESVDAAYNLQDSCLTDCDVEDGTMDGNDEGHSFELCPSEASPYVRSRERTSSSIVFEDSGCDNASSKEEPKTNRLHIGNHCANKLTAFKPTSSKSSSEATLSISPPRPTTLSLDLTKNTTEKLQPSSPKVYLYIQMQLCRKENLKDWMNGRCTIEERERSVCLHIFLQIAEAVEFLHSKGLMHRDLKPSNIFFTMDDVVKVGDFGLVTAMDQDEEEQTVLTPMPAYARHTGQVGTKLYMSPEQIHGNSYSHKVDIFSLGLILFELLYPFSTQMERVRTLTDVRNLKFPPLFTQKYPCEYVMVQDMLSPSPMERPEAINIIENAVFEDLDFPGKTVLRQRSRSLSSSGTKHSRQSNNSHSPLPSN

SMILES	IC50 (ATF4-Luc activity) [nM]	# kinases inhibited >50% (456 kinases; 0.2 μM)	# kinases inhibited >50% (456 kinases; 2.0 μM)	number of kinases with >60% inhibition (456 kinases)	secondary kinase targets (secondary kinase targets)	PERK phosphorylation (immunoblot) [1]	# kinases inhibited >50% (456 kinases; 20.0 μM)
Cc1cccc(CC(=O)N2CCc3c2ccc(-c2cn(C)c4ncnc(N)c24)c3F)n1 [GSK2656157, reference compound]	21	34	80	58	several secondary targets below 5 μM	inhibition of PERK phosphorylation	–
CNC(=O)c1nc(-c2ccc(NC(=O)[C@H](O)c3cc(F)cc(F)c3)cc2C)cnc1N [LY2, 3-amino-6-[4-[[(2R)-2-(3,5-difluorophenyl)-2-hydroxy-acetyl]amino]-2-methyl-phenyl]-N-methyl-pyrazine-2-carboxamide]	56	16	35	–	several secondary targets below 5 μM	inhibition of PERK phosphorylation	138
Cc1cc(NC(=O)[C@H](O)c2cccc(F)c2)ccc1-c1cn(C)c2ncnc(N)c12 [LY3, (2R)-N-[4-(4-amino-7-methyl-pyrrolo[2,3-d]pyrimidin-5-yl)-3-methyl-phenyl]-2-(3-fluorophenyl)-2-hydroxy-acetamide]	16	27	85	–	several secondary targets below 5 μM	inhibition of PERK phosphorylation	229
Cc1cc(NC(=O)[C@H](O)c2cc(F)cc(F)c2)ccc1-c1cnc(N)c(C(=O)NC(C)C)c1 [LY4, 2-amino-5-[4-[[(2R)-2-(3,5-difluorophenyl)-2-hydroxy-acetyl]amino]-2-methyl-phenyl]-N-isopropyl-pyridine-3-carboxamide]	48	19	20	8	no secondary kinase targets below 15 μM concentration	inhibition of PERK phosphorylation	–

Source: patent publication US20210121527A1, “METHODS OF TREATING MINIMAL RESIDUAL CANCER” (ICAHN SCHOOL OF MEDICINE AT MOUNT SINAI, priority 2018, published 2021)
